Assay results published in US20240382537A1, “Genetically Modified Mycoplasma Bacteria Active Against Heterogenous Bacterial Biofilms” (priority 2021, published 2024).

Experiments:
M. pneumoniae = assay: Effect of antibiotics on growth of M. pneumoniae; assay type: cell-based, Mycoplasma pneumoniae
Text: (§1) We studied a possible increase of the biofilm dispersal activity of CV8_HA strain, that expresses dispersal agents against P. aeruginosa, when combined with antibiotics. We used two different clinical isolates of P. aeruginosa (SAT290 and C117) and two different standard of care antibiotics (Ceftazidime-Avibactam and Piperacillin-Tazobactam). First, we studied the effect of different concentrations of these antibiotics on the growth of P. aeruginosa isolates and M. pneumoniae. […] Therefore, we studied the degradation of the biofilm of the P. aeruginosa clinical isolates when exposed to the supernatant of CV8_HA strains with or without these antibiotics (FIG. 8).

P. aeruginosa biofilm = assay: In vitro P. aeruginosa biofilm degradation assay (crystal violet); assay type: cell-based, Pseudomonas aeruginosa; settings: for effect of the minimal killing concentration when cells are organized in a biofilm: antibiotic alone, P. aeruginosa clinical isolates
Procedure: In Vitro P. aeruginosa Biofilm Degradation Assay
M. pneumoniae spp. was grown in a T25 flask for three days with 5 ml of Hayflick media without antibiotics, and then the conditioned supernatant was filtered with 0.33 μm sterile syringe filters. P. aeruginosa strains were grown overnight in Erlenmeyer flasks (20 μl stock in 20 ml TSB) at 37° C. on shaking 600 rpm, and then diluted to an OD600 of 0.15 in TSB. Diluted Pseudomonas culture (100 μl) was then added in triplicates to sterile 96-well polystyrene microtiter plates. Cells were incubated statically overnight at 25°° C. to allow for biofilm formation. Biofilms were washed with PBS the following day to remove non-adherent cells and TSB media. Treatment of 50-100 µl of M. pneumoniae-conditioned filtered medium were added to the wells (using at least triplicates), and plates were incubated at 37° C. for 4 h. After incubation, wells were washed with PBS, stained with 150 μl of 0.1% (w/v) crystal violet for 10 min and washed three times with PBS. The dye was solubilized by addition of 100 μl of 95% (v/v) ethanol and incubated for 10 min. Absorbance was measured at 595 nm using a TECAN plate reader.

P. aeruginosa cells = assay: Effect of antibiotic concentrations on growth of P. aeruginosa isolates in suspension; assay type: cell-based, Pseudomonas aeruginosa; settings: clinical isolates SAT290 and C117, suspension
Text: as §1

Row | Substance | susceptibility of M. pneumoniae to the antibiotic (M. pneumoniae) | effect of the minimal killing concentration when cells are organized in a biofilm (P. aeruginosa biofilm) | minimal concentration that kills P. aeruginosa cells when grown in suspension (P. aeruginosa cells) [µg/mL] | antibiotic activity on biofilm when combined with CV8_HA supernatant (P. aeruginosa biofilm; clinical isolate SAT290 (FIG. 8A))
1 | Piperacillin-Tazobactam | naturally resistant | has no effect | > 5 | –
2 | Ceftazidime-Avibactam | naturally resistant | has no effect | > 15 | becomes active on the biofilm
